According to patent US5814636A, “Compounds with platelet aggregation inhibitor activity” (Meiji Seika Kabushiki Kaisha, priority 1994, dated 1998):
Counter-ions that a name gives are not always drawn.

Tested on: human PRP (platelet rich plasma)
Assay: Inhibition of platelet aggregation (human PRP, ADP-induced)
Type: cell-based
Settings: ADP 5 μM final as inducer, compound and PRP preincubated 2 minutes
Description: The structures of compounds obtained in Examples are as follows. The numbers of the compounds correspond to those of the examples. [drawing 11] Pharmacological test: Inhibition of platelet aggregation
The effect of the compound according to the present invention on inhibiting the platelet aggregation was examined with human PRP (platelet rich plasma).
Nine volumes of a blood sample was taken out of the vein of a normal human with a syringe in which one volume of a 3.8% sodium citrate solution was charged. The blood sample was centrifuged at 170×g at room temperature for 10 minutes. The supernatant thus obtained was isolated as PRP. The residual blood sample that PRP had been taken out was centrifuged at 2,700×g for 15 minutes. The supernatant was then taken as platelet poor plasma (PPP).
Platelet aggregation test was conducted with an aggligometer (PAM-8C; manufactured by MEBANICKS Co., Ltd.). Compounds to be tested were dissolved in a 50% DMSO saline, a 50% methanol saline or physiological saline. The compound and PRP were preincubated for 2 minutes. The ADP (CHRONO-PAR REAGENTS 384 ADP, CHRONO-LOG Corp.) was used as an inducer in the form of a dilution with saline so that the final concentration is 5 μM.
Anti-platelet aggregation activity was obtained as an inhibition rate to platelet aggregation effect of ADP in the absence of a compound to be tested as follows: [formula]

Compound | IC50 [nM]
O=C(O)COc1ccc(C(=O)CN2CCN(C3CCNCC3)CC2=O)cc1OCC(=O)O [Example 1, [[4-[[4-(piperidin-4-yl)-2-oxopiperazin-1-yl]acetyl]-o-phenylene]dioxy]diacetic acid trifluoroacetate] | 55
O=C(O)COC1CCN(C(=O)CN2CCN(C3CCNCC3)CC2=O)CC1 [Example 2, [[1-[4-(piperidin-4-yl)-2-oxopiperazin-1-yl]acetyl]piperidin-4-yl]oxyaceticacid trifluoroacetate] | 80
O=C(O)COc1ccc(C(=O)CN2CCN(C3CCNCC3)CC2)cc1OCC(=O)O [Example 3, [[4-[4-(piperidin-4-yl)piperazin-1-yl]acetyl]-o-phenylene]dioxy]diacetic acid trifluoroacetate] | 150
CCOC(=O)COc1ccc(C(=O)CN2CCN(C3CCNCC3)CC2=O)cc1OCC(=O)OCC [Example 4] | 560
O=C(O)COc1ccc(C(=O)CN2CCN(C3CCNCC3)CC2=O)cc1 [Example 5] | 32
O=C(O)COC1CCN(C(=O)CN2CCC(N3CCNCC3)CC2)CC1 [Example 6, [[1-[4-(piperazin-4-yl)piperidin-1-yl]acetyl]piperidin-4-yl]oxyacetic acid trifluoroacetate] | 2300
CCCCOC(=O)COc1ccc(C(=O)CN2C(=O)CN(C3CCNCC3)CC2=O)cc1 [Example 7, n-butyl 4-[[4-(piperidin-4-yl)-2,6-dioxopiperazin-1-yl]acetyl]phenoxyacetate hydro chloride] | 240
O=C(O)COc1ccc(C(=O)CN2C(=O)CN(C3CCNCC3)CC2=O)cc1 [Example 8, 4-[[4-(piperidin-4-yl)-2,6-dioxopiperazin-1-yl]acetyl]phenoxyacetic acid hydrochloride] | 19
CCCCOC(=O)COc1ccc(C(=O)CN2CCN(C3CCNCC3)C(=O)C2=O)cc1 [Example 9, n-butyl 4-[[4-(piperidin-4-yl)-2,3-dioxopiperazin-1-yl]acetyl]phenoxyacetate hydro chloride] | 1200
O=C(O)COc1ccc(C(=O)CN2CCN(C3CCNCC3)C(=O)C2=O)cc1 [Example 10, 4-[[4-(piperidin-4-yl)-2,3-dioxopiperazin-1-yl]acetyl]phenoxyacetic acid.hydrochloride] | 470
CCCCOC(=O)COc1ccc(C(=O)CN2CC(=O)N(C3CCNCC3)CC2=O)cc1 [Example 11] | 1100
O=C(O)COc1ccc(C(=O)CN2CC(=O)N(C3CCNCC3)CC2=O)cc1 [Example 12, 4-[[4-(piperidin-4-yl)-2,5-dioxopiperazin-1-yl]acetyl]phenoxyacetic acid hydrochloride] | 1200
CCCCOC(=O)COc1ccc(C(=O)CN2CCN(C3CCNCC3)CC2=O)cc1 [Example 13, n-butyl 4-[[4-(piperidin-4-yl)-2-oxopiperazin-1-yl]acetyl]phenoxyacetate dihydrochloride] | 49
CCOC(=O)COc1ccc(C(=O)CN2CCN(C3CCNCC3)CC2=O)cc1 [Example 14, ethyl 4-[[4-(piperidin-4-yl)-2-oxopiperazin-1-yl]acetyl]phenoxyacetate] | 250
CCOC(=O)COc1ccc(C(=O)CN2CCN(C3CCN(Cc4oc(=O)oc4C)CC3)CC2=O)cc1 [Example 15, ethyl 4-[[4-[1-(5-methyl-2-oxodioxol-4-yl)methylpiperidin-4-yl]-2-oxopiperazin-1-yl]acetyl]phenoxyacetate] | 300
O=C(O)CCc1ccc(C(=O)CN2CCN(C3CCNCC3)CC2=O)cc1 [Example 16, 3-[4-[[4-(piperidin-4-yl)-2-oxopiperazin-1-yl]acetyl]phenyl]propionic acid trifluoroacetate] | 420
